Measured values published in PMC6097783, “β-N-Acetylglucosaminidase MthNAG from Myceliophthora thermophila C1, a thermostable enzyme for production of N-acetylglucosamine from chitin” (Applied Microbiology and Biotechnology, 2018).
Each block holds one molecule with its values, some of them ahead of it.

Columns and labels:
MthNAG [1] = molecular target: T1, MthNAG (Thermothelomyces thermophilus, UniProt G2Q2L6); assay: substrate inhibition kinetics, released GlcNAc by HPAEC; type: biochemical; conditions: citrate-phosphate buffer 0.1 M, pH 4.5, 50 °C
T1 construct: gene MYCTH_2294755; full-length GH20 secreted enzyme, 582-residue precursor with 21-residue signal peptide; homologously overexpressed in M. thermophila C1, purified by IEX and SEC, no tag told; most similar to XP_003658680 of strain ATCC 42464
T1 sequence (G2Q2L6 22-582): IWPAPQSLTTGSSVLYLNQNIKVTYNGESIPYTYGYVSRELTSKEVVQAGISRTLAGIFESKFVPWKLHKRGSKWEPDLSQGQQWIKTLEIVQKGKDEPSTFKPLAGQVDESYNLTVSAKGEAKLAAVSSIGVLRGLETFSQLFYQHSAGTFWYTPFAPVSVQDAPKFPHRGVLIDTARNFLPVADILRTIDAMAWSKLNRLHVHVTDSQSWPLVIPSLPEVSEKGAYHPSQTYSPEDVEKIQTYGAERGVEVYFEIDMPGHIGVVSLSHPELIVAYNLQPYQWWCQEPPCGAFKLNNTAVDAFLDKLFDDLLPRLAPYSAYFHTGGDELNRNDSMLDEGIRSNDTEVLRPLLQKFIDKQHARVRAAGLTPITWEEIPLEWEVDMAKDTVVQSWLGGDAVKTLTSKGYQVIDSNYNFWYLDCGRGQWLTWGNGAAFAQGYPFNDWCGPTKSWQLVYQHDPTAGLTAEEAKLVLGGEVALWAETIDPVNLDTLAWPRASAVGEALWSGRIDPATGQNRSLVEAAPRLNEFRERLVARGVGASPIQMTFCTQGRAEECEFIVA

MthNAG [2] = molecular target: T1, MthNAG; assay: substrate inhibition kinetics, released p-nitrophenol at […] nm; type: biochemical; conditions: citrate-phosphate buffer 0.1 M, pH 4, 50 °C
purified protein = substrate: CC(=O)N[C@H]1[C@H](Oc2ccc([N+](=O)[O-])cc2)O[C@H](CO)[C@@H](O)[C@@H]1O; assay: purified protein; type: biochemical, Thermothelomyces thermophilus; conditions: citrate-phosphate buffer 0.1 M, pH 4, 50 °C

- Ki (MthNAG [1]): 500 ± 110 µM
Molecule: CC(=O)N[C@H]1[C@H](O[C@H]2[C@H](O)[C@@H](NC(C)=O)C(O)O[C@@H]2CO)O[C@H](CO)[C@@H](O)[C@@H]1O (stereo partly shown) [(GlcNAc)2]

- Ki (MthNAG [2]): 1960 ± 260 µM
Molecule: CC(=O)N[C@H]1[C@H](Oc2ccc([N+](=O)[O-])cc2)O[C@H](CO)[C@@H](O)[C@@H]1O [GlcNAc-pNP, 4-nitrophenyl-N-acetylglucosamine]

B1: MthNAG (Thermothelomyces thermophilus ATCC 42464) (protein)
chain: IWPAPQSLTTGSSVLYLNQNIKVTYNGESIPYTYGYVSRELTSKEVVQAGISRTLAGIFESKFVPWKLHKRGSKWEPDLSQGQQWIKTLEIVQKGKDEPSTFKPLAGQVDESYNLTVSAKGEAKLAAVSSIGVLRGLETFSQLFYQHSAGTFWYTPFAPVSVQDAPKFPHRGVLIDTARNFLPVADILRTIDAMAWSKLNRLHVHVTDSQSWPLVIPSLPEVSEKGAYHPSQTYSPEDVEKIQTYGAERGVEVYFEIDMPGHIGVVSLSHPELIVAYNLQPYQWWCQEPPCGAFKLNNTAVDAFLDKLFDDLLPRLAPYSAYFHTGGDELNRNDSMLDEGIRSNDTEVLRPLLQKFIDKQHARVRAAGLTPITWEEIPLEWEVDMAKDTVVQSWLGGDAVKTLTSKGYQVIDSNYNFWYLDCGRGQWLTWGNGAAFAQGYPFNDWCGPTKSWQLVYQHDPTAGLTAEEAKLVLGGEVALWAETIDPVNLDTLAWPRASAVGEALWSGRIDPATGQNRSLVEAAPRLNEFRERLVARGVGASPIQMTFCTQGRAEECEFIVA
notes: full-length GH20 secreted enzyme, 582-residue precursor with 21-residue signal peptide; homologously overexpressed in M. thermophila C1, purified by IEX and SEC, no tag told; most similar to XP_003658680 of strain ATCC 42464
- Km (purified protein): 60 ± 10 µM
- kcat (purified protein): 14.0 ± 0.7 s⁻¹
